The experiment addresses Prostaglandin E2 receptor EP2 subtype (Homo sapiens) (UniProt P43116). Kind of experiment: EP2 receptor modulators, dose response, cell-based, human EP2, PGE2 EC50 shift (AID 1421). The note with it: EP2-expressing cells, PGE2 EC50 shift by compound; for PGE2 EC50 with compound: measured here: PGE2 EC50 at 6.7 uM compound.

Where “and” joins values, the source holds several entries; their conditions need not be identical. Equal entries are not always repeated. Calls of active or inactive are those of the source. How the calls were made is not given here.

Prostaglandin E2 receptor EP2 subtype (Homo sapiens), sequence (P43116 whole entry, looked up): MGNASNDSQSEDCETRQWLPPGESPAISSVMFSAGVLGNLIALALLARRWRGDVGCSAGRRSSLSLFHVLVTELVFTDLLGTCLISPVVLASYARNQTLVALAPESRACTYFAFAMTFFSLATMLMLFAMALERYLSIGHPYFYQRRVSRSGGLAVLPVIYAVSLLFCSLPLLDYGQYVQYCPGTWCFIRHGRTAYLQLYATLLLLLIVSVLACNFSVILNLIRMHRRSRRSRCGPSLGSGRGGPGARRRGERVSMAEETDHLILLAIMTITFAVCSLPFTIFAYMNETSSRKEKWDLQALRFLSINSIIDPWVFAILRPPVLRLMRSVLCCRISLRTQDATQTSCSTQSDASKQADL

Take `CCOC(=O)C(Cc1ccccc1)(NC(C)=O)C(=O)OCC`: the PGE2 EC50 with compound was determined as 1.39 nM.

Regarding `Brc1ccc(-c2ccc(/C=N/Nc3nc(N4CCOCC4)nc(N4CCOCC4)n3)o2)cc1`, the PGE2 EC50 with compound worked out at 1.01 nM.

As to `O=C(Nc1ccccc1N1CCN(c2ccccc2)CC1)C12CC3CC(CC(C3)C1)C2`, the outcome was active and the PGE2 EC50 with compound is 2.52 nM.

In the case of `Cc1ccc2nc(-c3ccccn3)c(Nc3ccccc3C)n2c1`, the PGE2 EC50 with compound was 0.79 nM.

For `Cc1ccc(O)c(N=Cc2cc(Cc3ccccc3)cc([N+](=O)[O-])c2O)c1`, the PGE2 EC50 with compound came out at 1.07 nM.

In the case of `CCCCNCC(=O)Nc1sc(C)c(C)c1C(=O)OCC`, the PGE2 EC50 with compound stood at 2.33 nM.

Turning to `OC1(c2ccc(Cl)cc2)CN(c2ccccc2)C2=[N+]1CCS2` (centres undefined), the PGE2 EC50 with compound stood at 1.16 nM.

In the case of `c1cncc(-c2nc(N3CCCCCC3)c3ccccc3n2)c1`, the PGE2 EC50 with compound came to 0.91 nM.

For the compound `CCOC(=O)CN(C(=O)CSc1nnc(Cc2ccccc2)n1-c1ccc(C)cc1)c1ccccc1`, the PGE2 EC50 with compound was 1.48 nM.

For `CCOC(=O)C(C)Sc1nc(-c2ccccc2)nc2ccccc12` (centres undefined), the outcome was active and the PGE2 EC50 with compound was 0.92 nM.

For the compound `C=CCc1cccc(C=Nc2cc(Br)ccc2O)c1O`, the PGE2 EC50 with compound was determined as 0.89 nM.

In the case of `Cn1nc(-c2ccccc2)c(-c2nc(-c3cccc(C(F)(F)F)c3)no2)c1Cl`, the result was active and the PGE2 EC50 with compound amounted to 0.81 nM.

Regarding `CC(C)Cc1nc(N2CCCCC2)c(C#N)c2c1CCC2`, the result was active and the PGE2 EC50 with compound was found to be 1.37 nM.

Consider `O=C(COc1ccccc1)Nc1cc(C(F)(F)F)ccc1N1CCCC1`, for which the PGE2 EC50 with compound came out at 0.91 nM.

For the compound `Cc1ccc(S(=O)(=O)N2c3ccccc3OCC2C(C)(C)C)cc1` (centres undefined), the PGE2 EC50 with compound turned out to be 2.69 nM.

As to `CC1CCN(c2nc3c(c(=O)[nH]c(=O)n3C)n2CCCc2ccccc2)CC1`, the PGE2 EC50 with compound was determined as 1.05 nM.

Regarding `CC(=O)OC[C@@]1(O)C[C@@]23CCC4c5ccoc5CC[C@]4(C)C2CC[C@@H]1C3` (some centres undefined), the PGE2 EC50 with compound was determined as 0.85 nM.

Regarding `Cc1sc(NC(=O)c2ccccc2F)c(CN2CCCCC2C)c1C` (centres undefined), the outcome was active and the PGE2 EC50 with compound amounted to 0.88 nM.

Turning to `CCC(=O)Oc1ccc(C(CC)C(CC)c2ccc(OC(=O)CC)cc2)cc1` (centres undefined), the PGE2 EC50 with compound amounted to 0.32 nM.

For the compound `CC1=CC(C)(C)N(C(=O)c2ccccc2)c2ccccc21`, the outcome was active and the PGE2 EC50 with compound turned out to be 0.8 nM.

On to `Cc1cc(C)c2c(n1)sc1c(=O)n(Cc3ccccc3Cl)nnc12`, for which the PGE2 EC50 with compound is 0.92 nM.

Regarding `O=C(c1ccco1)N(CC1CCCO1)c1nc(-c2ccccc2)cs1` (centres undefined), the PGE2 EC50 with compound was found to be 0.61 nM.

`CCCCN1C=C(C(=O)OC)C(c2ccccc2Cl)C(C(=O)OC)=C1`: the PGE2 EC50 with compound came out at 2.72 nM.

Turning to `CCOC(=O)C1CCN(c2c(C(=O)c3ccccc3)cnc3ccc(CC)cc23)CC1`, the PGE2 EC50 with compound turned out to be 0.91 nM.

In the case of `CCC1Oc2ccc(C)cc2N(Cc2cccc(C)c2)C1=O` (centres undefined), the PGE2 EC50 with compound is 1.24 nM.

For `O=C(Nc1ccccc1Oc1ccccc1)c1ccccc1F`, the PGE2 EC50 with compound amounted to 1.07 nM.

Regarding `Cc1ccc(S(=O)(=O)n2c3ccc(Cl)cc3c3nc(C)sc32)cc1`, the PGE2 EC50 with compound was found to be 0.44 nM.

On to `Cc1cccc2cc(CN(Cc3cccs3)C(c3nnnn3C3CCCC3)C(C)C)c(=O)[nH]c12` (centres undefined), for which the PGE2 EC50 with compound was 0.99 nM.

Take `Cc1nc2c(-c3ccccc3)c(C)nn2c(C)c1CCC(=O)N1CCOCC1`: the PGE2 EC50 with compound was found to be 1.09 nM.

Consider `COc1ccc2c(c1)C(C)=CC(C)(C)N2S(=O)(=O)c1ccc(Br)cc1`, for which the PGE2 EC50 with compound stood at 0.98 nM.

Turning to `COC(=O)c1cc2ccsc2n1Cc1cccc(F)c1`, the PGE2 EC50 with compound was 0.95 nM.

On to `CC(=O)O[C@H]1C[C@@H](OC(C)=O)C(C)(C)C2C[C@@H](OC(C)=O)[C@]3(C)C([C@H](OC(C)=O)C[C@@]4(C)[C@H](c5ccoc5)OC(=O)[C@H]5O[C@]543)[C@]21C` (some centres undefined), for which the PGE2 EC50 with compound was found to be 1.05 nM.

For `CC(C)OC(=O)CSc1nc(Cc2ccccc2)nc2ccccc12`, the result was active and the PGE2 EC50 with compound is 1.14 nM.

Take `COc1ccc(-c2noc(-c3ccccc3C(=O)Nc3cccnc3)n2)cc1`: the PGE2 EC50 with compound stood at 1.02 nM.

Turning to `O=C(NNc1ccc([N+](=O)[O-])cc1[N+](=O)[O-])C1C2CCCCC21` (centres undefined), the PGE2 EC50 with compound was determined as 0.66 nM.

Consider `CCN1C(c2ccccc2)C(C)C(=O)C(C)C1c1ccccc1` (centres undefined), for which the PGE2 EC50 with compound was 0.85 nM.

Turning to `COC(=O)c1cc(Br)c(=O)n(-c2nccs2)c1`, the PGE2 EC50 with compound is 2.71 nM.

Regarding `CCOc1ccccc1Cn1c(=O)oc2ccc(C)cc21`, the PGE2 EC50 with compound stood at 1.09 nM.

For `C=CCSc1nc(Oc2ccccc2)c2sccc2n1`, the PGE2 EC50 with compound was 2.43 nM.

`CCN(CC)C(=O)Cn1cc(C(=O)C(=O)NCc2ccco2)c2ccccc21`: the PGE2 EC50 with compound is 1.55 nM.

On to `Cc1ccc(S(=O)(=O)c2c(C)cc(C)nc2N2CCCCC2)cc1`, for which the PGE2 EC50 with compound is 1.31 nM.

In the case of `O=C(c1ccc(Br)o1)N(Cc1ccccc1)Cc1ccccc1`, the PGE2 EC50 with compound amounted to 0.77 nM.

In the case of `COC(=O)c1sc2nc(N3CCCCC3)c3c(c2c1N)CCCC3`, the outcome was active and the PGE2 EC50 with compound is 0.85 nM.

Turning to `O=C(O)CCSc1ccc2ccccc2n1`, the PGE2 EC50 with compound is 2.87 nM and 2.98 nM.

On to `Clc1ccccc1Cn1c(/C=C/c2ccco2)nc2ccccc21`, for which the PGE2 EC50 with compound turned out to be 0.99 nM.

Take `Cc1ccc(-n2c(=S)[nH]c3c(oc4ccccc43)c2=O)cc1C`: the PGE2 EC50 with compound was 1.76 nM.

Turning to `CCc1cc2cc(C)cc(C)c2nc1SCC(=O)N1CCCC1`, the PGE2 EC50 with compound came out at 3.07 nM.

In the case of `CCOP(=O)(OCC)c1nc(-c2ccc(Cl)cc2Cl)oc1N1CCCCC1`, the PGE2 EC50 with compound was 1.42 nM.

Turning to `CCOC(=O)C1CCN(c2c(C(=O)c3ccccc3)cnc3ccc(Cl)cc23)CC1`, the PGE2 EC50 with compound came out at 0.89 nM.

`O=C(COc1ccccc1)Nc1ccccc1N1CCN(c2ccccc2)CC1`: the PGE2 EC50 with compound was 1.48 nM.

For `Cc1ccccc1NC1=C(C(=O)c2ccccc2)N(C)S(=O)(=O)c2ccccc21`, the PGE2 EC50 with compound worked out at 1.01 nM.

Turning to `CC1CCCN(C(=O)CSc2cnc3ccccc3n2)C1` (centres undefined), the PGE2 EC50 with compound worked out at 1.26 nM.

As to `Cc1nn(Cc2c(Cl)cccc2Cl)c(C)c1C(=O)NCc1ccc(C)n1C`, the PGE2 EC50 with compound is 1.18 nM.

For the compound `O=c1cc(N2CCCCC2)c(-c2ccccc2)nn1Cc1ccccc1Cl`, the PGE2 EC50 with compound is 0.65 nM.

As to `CN(C)c1oc(-c2ccccc2Cl)nc1P(=O)(c1ccccc1)c1ccccc1`, the PGE2 EC50 with compound was 1.17 nM.

`Cc1nc2ccccc2c(-c2ccccc2)c1C(=O)c1ccccc1`: the PGE2 EC50 with compound was determined as 2.55 nM.

`CCOC(=O)c1c(N)nn(C(=O)c2ccccc2)c1-c1ccccc1`: the PGE2 EC50 with compound was determined as 2.88 nM.

Turning to `O=c1c(O)c(-c2ccccc2)oc2ccc3occc3c12`, the PGE2 EC50 with compound came out at 0.74 nM.

For the compound `Cc1ccccc1-n1c(SCC(=O)N2CCCC2)nnc1-c1ccccn1`, the PGE2 EC50 with compound worked out at 1.28 nM.

Take `Cc1noc(C)c1CSc1ncnc2sc3c(c12)CCCCC3`: the PGE2 EC50 with compound came to 1.22 nM.

Take `CCOc1ccc(OCC)c(NC(=O)CN2CCN(c3cccc(C)c3)CC2)c1`: the PGE2 EC50 with compound came out at 1.02 nM.

Turning to `COc1ccc(-c2c3c([nH]c(=S)c2C#N)CCC3)cc1`, the PGE2 EC50 with compound worked out at 2.78 nM.

As for `C/C(=N\N(Cc1ccccc1)c1ccccc1)c1cccnc1`, the PGE2 EC50 with compound turned out to be 1.38 nM.

Turning to `CCOC(=O)c1cc(CC)sc1NC(=O)c1ccc2c(c1)OCCO2`, the result was active and the PGE2 EC50 with compound came to 0.97 nM.

Turning to `CCSc1cc(N2CCOCC2)nc(-c2ccc(Cl)cc2)n1`, the outcome was active and the PGE2 EC50 with compound was 0.69 nM.

For the compound `Cc1cc(-c2ccccc2)nc2cc(C(=O)N(Cc3ccccc3)Cc3ccccc3)nn12`, the PGE2 EC50 with compound stood at 1.03 nM.

For the compound `COc1c(O)ccc(/C=C(\C#N)c2nc3ccccc3[nH]2)c1[N+](=O)[O-]`, the PGE2 EC50 with compound was determined as 1.1 nM.

As to `NC(=O)COc1ccc(C23CC4CC(CC(C4)C2)C3)cc1`, the PGE2 EC50 with compound came to 2.56 nM.

As for `Cn1c(C(=O)N2CCCc3ccccc32)cc2sccc21`, the PGE2 EC50 with compound came out at 2.41 nM.

With `CC1Cc2ccccc2N1C(=O)CSc1nnc(Cc2ccccc2)n1CCc1ccccc1` (centres undefined), the PGE2 EC50 with compound came out at 1.14 nM.

For the compound `CN(C)Cc1ccccc1Sc1cccc2ccccc12`, the PGE2 EC50 with compound was 1.07 nM.

In the case of `COc1ccc(-c2nc(NC(C)=O)sc2-c2ccc(OC)cc2)cc1`, the PGE2 EC50 with compound was 0.95 nM.

For `C=CCn1c(-c2oc3nc(-c4ccccc4)cc(-c4ccccc4)c3c2N)n[nH]c1=S`, the PGE2 EC50 with compound is 1.45 nM.

Turning to `COc1ccc(N(Cc2ccccc2)S(=O)(=O)c2ccc(C)cc2)cc1`, the PGE2 EC50 with compound amounted to 1.05 nM.

`CN(/N=C\c1ccc(O)c(O)c1)c1nc(-c2ccccc2)cc(-c2ccccc2)n1`: the PGE2 EC50 with compound is 1.22 nM.

For `COc1ccc(-n2c(COc3cccc4ccccc34)nnc2SCC#N)cc1`, the PGE2 EC50 with compound worked out at 1.19 nM.

Turning to `CCOc1ccccc1COC(=O)c1cccc(-n2cnnn2)c1`, the PGE2 EC50 with compound turned out to be 1.06 nM.

For `CCSc1ncnc2sc3c(c12)CCC3`, the PGE2 EC50 with compound is 0.94 nM.

With `Cc1cccc(NC2=NC(=S)N(c3ccc(C(=O)O)cc3)C23CCCCC3)c1`, the PGE2 EC50 with compound is 0.8 nM.

In the case of `Cc1ccc(CSc2nc3ccccc3cc2C=O)cc1`, the PGE2 EC50 with compound was 0.73 nM.

Turning to `O=c1cc(N2CCCCC2)c(-c2ccccc2)nn1Cc1cccc(F)c1`, the PGE2 EC50 with compound came to 0.33 nM.

Turning to `O=C(c1ccco1)N1N=C(c2ccc(Br)cc2)CC1(O)C(F)(F)F` (centres undefined), the PGE2 EC50 with compound is 0.84 nM.

Take `O=C(NCc1ccco1)c1ccc(=O)[nH]n1`: the PGE2 EC50 with compound is 1.06 nM.

Regarding `CN(CC(=O)Nc1ccccc1-c1ccccc1)C1CCCCC1`, the PGE2 EC50 with compound turned out to be 0.51 nM.

In the case of `CCN(c1cccc(C)c1)S(=O)(=O)c1ccc2c3c(cccc13)C(=O)N2`, the PGE2 EC50 with compound turned out to be 0.53 nM.

In the case of `CC(=O)Nc1sc2c(c1C(c1cccs1)N1CCOCC1)CCCC2` (centres undefined), the PGE2 EC50 with compound stood at 0.99 nM.

As to `CCCc1cc(-c2n[nH]c(=S)n2C(C)c2ccccc2)cs1` (centres undefined), the result was active and the PGE2 EC50 with compound was 1.2 nM.

In the case of `CC1=NN(c2ccc(S(=O)(=O)O)cc2)C(=O)/C1=C\c1ccc(Cl)cc1`, the PGE2 EC50 with compound came out at 1.07 nM.

(Values after PubChem BioAssay AID1421 (Emory University Molecular Libraries Screening Center, 2008).)
